{"source": "ChEMBL document CHEMBL1201862", "about": "“PubChem BioAssay data set” (2004)", "key": {"Wee1-like protein kinase": {"target": "Wee1-like protein kinase (Homo sapiens, UniProt P30291)", "assay": "Dose Response Cell-based Assay for Inhibitors of Wee1 Degradation. [Related pubchem assays: 1410, 1321 ]", "format": "functional"}, "[1]": {"assay": "HEK293T cytotoxicity, dose response, cytotoxicity control for miR-122 modulator project, cell-based, activator set, cherry-pick (AID 720690);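 also: HEK293T human cells scored for general mammalian cytotoxicity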", "format": "functional"}, "[2]": {"assay": "HEK293T cytotoxicity, dose response, cytotoxicity control for miR-122 modulator project, cell-based, inhibitor set, cherry-pick, set 2 (AID 720697)", "format": "functional"}, "[3]": {"target": "Sphingosine 1-phosphate receptor 2 (Homo sapiens, UniProt O95136)", "assay": "Dose Response Cell Based Assay for Antagonists of the S1P2 Receptor. [Related pubchem assays: 856, 736 ]", "format": "functional"}, "[4]": {"assay": "miR-122 activators in hepatoma reporter cells, dose response, cell-based, Huh7 psiCHECK-miR122, Renilla luciferase, cherry-picked (AID 651956);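 also: huh7 hepatoma cells stably carrying a psiCHECK-2 miR-122 sensor plasmid; renilla luciferase signal reporting endogenous miR-122 activity after 48 h compound exposure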", "format": "functional"}, "cells [5]": {"assay": "cells"}, "[6]": {"target": "G2/mitotic-specific cyclin-B1 (Homo sapiens, UniProt P14635)", "assay": "Counterscreen assay for inhibitors of Wee1 degradation: dose response cell-based assay to identify inhibitors of cyclin B degradation. [Related pubchem assays: 1410, 1321 ]", "format": "functional"}, "[7]": {"assay": "inhibitors of PGC1a acetylation in cells, dose response, cell-based, cherry-picked samples (AID 720514);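 also: potency may reflect raised or lowered acetylation signal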", "format": "functional"}, "[8]": {"assay": "cytotoxicity in KRAS-transformed pancreatic duct cells, primary screen, cell-based, fluorescence, HTS (AID 431);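 also: cell line used: HPDE-C7K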", "format": "functional", "details": "Homo sapiens"}, "INS1": {"tested_on": "INS1", "assay": "beta cell apoptosis inhibitors, cytokine rescue, dose response, luminescence, retest (AID 449756);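 also: cell death triggered by IL-1 beta plus TNF-alpha plus IFN-gamma mixture; protective hits raise ATP signal compared with cytokine alone wells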", "format": "functional, cell-based", "details": "Rattus norvegicus"}, "[9]": {"assay": "cytotoxicity in HEK-293T cells, dose response, cytotoxicity control for TCR NF-kB inhibitor project, luminescence, T-cell screen hits (AID 489026);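 also: cells exposed to compound about 14 hours before the viability readout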", "format": "functional, cell-based"}, "[10]": {"assay": "cytotoxicity in HPDE-C7 cells, cell-based, fluorescence, HTS (AID 430)", "format": "functional", "details": "Homo sapiens"}, "[11]": {"target": "T1, Heat shock factor protein 1 (Mus musculus, UniProt P38532)", "T1 sequence (P38532 whole entry)": "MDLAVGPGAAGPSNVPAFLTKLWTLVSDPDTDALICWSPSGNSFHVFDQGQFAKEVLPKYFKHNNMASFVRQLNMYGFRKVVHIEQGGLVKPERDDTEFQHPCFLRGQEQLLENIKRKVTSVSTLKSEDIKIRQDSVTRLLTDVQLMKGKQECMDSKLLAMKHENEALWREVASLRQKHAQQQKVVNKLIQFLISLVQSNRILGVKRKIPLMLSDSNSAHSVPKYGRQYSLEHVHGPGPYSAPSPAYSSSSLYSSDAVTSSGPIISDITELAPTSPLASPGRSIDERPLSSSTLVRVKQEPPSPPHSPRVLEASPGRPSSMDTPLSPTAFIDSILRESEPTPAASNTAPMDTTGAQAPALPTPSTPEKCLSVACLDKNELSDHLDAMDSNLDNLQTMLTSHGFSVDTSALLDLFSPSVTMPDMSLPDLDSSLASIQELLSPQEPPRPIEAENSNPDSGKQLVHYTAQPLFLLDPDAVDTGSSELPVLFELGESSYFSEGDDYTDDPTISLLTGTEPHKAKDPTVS", "assay": "inhibition of MG132-induced HSE-luciferase signal, confirmation, cell-based, NIH3T3, luminescence, dose retest (AID 2382);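 also: NIH3T3 fibroblasts with HSF1-driven luciferase reporter stressed by proteasome inhibitor MG132; luminescence from HSF1-driven luciferase expression after 8 hours of MG132 stress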", "format": "functional"}, "Major prion protein": {"target": "Major prion protein (Homo sapiens, UniProt P04156)", "format": "functional, cell-based"}, "[12]": {"assay": "HepG2 cell cytotoxicity, dose response, cytotoxicity control for Shn3 inhibitor project, CellTiter-Glo, cherry-picked (AID 624134)", "format": "functional, cell-based"}, "[13]": {"assay": "reduction of Shn3 3'UTR firefly luciferase signal, dose response, Schnurri-3 inhibitor project, cell-based, Clone20 osteoblasts, cherry-pick, set 2 (AID 720490)", "format": "functional"}, "[14]": {"assay": "Shn3 3'UTR reporter inhibitors, dose response, cell-based, Clone20 osteoblasts, firefly luciferase, cherry-picked (AID 624132)", "format": "functional"}, "[15]": {"target": "COUP transcription factor 2 (Homo sapiens, UniProt P24468)", "assay": "Luminescence-based cell-based high throughput dose response assay to identify inhibitors of COUP-TFII (NR2F2).", "format": "functional"}, "Galanin receptor type 3": {"target": "T2, Galanin receptor type 3 (Homo sapiens, UniProt O60755)", "T2 sequence (O60755 whole entry)": "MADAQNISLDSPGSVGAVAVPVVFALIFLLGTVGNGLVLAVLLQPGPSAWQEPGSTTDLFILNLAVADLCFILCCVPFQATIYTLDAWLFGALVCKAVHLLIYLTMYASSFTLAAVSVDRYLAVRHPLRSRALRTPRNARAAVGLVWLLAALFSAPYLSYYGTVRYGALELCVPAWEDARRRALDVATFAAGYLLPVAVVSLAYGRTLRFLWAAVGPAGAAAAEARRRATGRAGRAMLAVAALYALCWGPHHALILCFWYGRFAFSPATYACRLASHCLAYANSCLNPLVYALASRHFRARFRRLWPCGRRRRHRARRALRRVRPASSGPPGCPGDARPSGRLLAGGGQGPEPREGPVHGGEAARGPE", "assay": "Fluorescence-based cell-based primary high throughput dose response assay to identify antagonists of the Galanin Receptor 3 (GalR3).", "format": "functional"}, "[16]": {"assay": "control 3'UTR Renilla luciferase suppression, dose response, counter-screen for Shn3 inhibitor project, cell-based, Clone20-Shn3RL, cherry-picked (AID 624133)", "format": "functional"}, "cells [17]": {"assay": "cells", "format": "functional, cell-based", "details": "HEK-CNG"}, "[18]": {"assay": "human group III sPLA2 inhibitors, dose response, biochemical, QFRET, IC50 (AID 743457);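 also: green fluorescence rise as the enzyme cleaves BODIPY PC-A2 in liposomes; potency for inhibition of the enzyme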"}, "[19]": {"assay": "inhibitors of fibronectin matrix deposition, dose response, AH1F cells, Alexa488-FN fluorescence, cherry-picks (AID 1035475)", "format": "functional, cell-based"}, "[20]": {"assay": "A549 cell cytotoxicity, dose response, cytotoxicity control, cherry-picks, 26 µM top dose (AID 1053119)", "format": "functional, cell-based"}, "[21]": {"assay": "HepG2 cell cytotoxicity, dose response, cytotoxicity control, ATP luminescence, cherry-pick, set 6 (AID 1053125)", "format": "functional, cell-based"}, "[22]": {"assay": "Luminescence-based cell-based high throughput dose response assay to identify activators of the DAF-12 from the parasite S. stercoralis (ssDAF-12).", "format": "functional"}, "[23]": {"target": "T3, Nuclear receptor subfamily 0 group B member 1 (Homo sapiens, UniProt P51843)", "T3 sequence (P51843 whole entry)": "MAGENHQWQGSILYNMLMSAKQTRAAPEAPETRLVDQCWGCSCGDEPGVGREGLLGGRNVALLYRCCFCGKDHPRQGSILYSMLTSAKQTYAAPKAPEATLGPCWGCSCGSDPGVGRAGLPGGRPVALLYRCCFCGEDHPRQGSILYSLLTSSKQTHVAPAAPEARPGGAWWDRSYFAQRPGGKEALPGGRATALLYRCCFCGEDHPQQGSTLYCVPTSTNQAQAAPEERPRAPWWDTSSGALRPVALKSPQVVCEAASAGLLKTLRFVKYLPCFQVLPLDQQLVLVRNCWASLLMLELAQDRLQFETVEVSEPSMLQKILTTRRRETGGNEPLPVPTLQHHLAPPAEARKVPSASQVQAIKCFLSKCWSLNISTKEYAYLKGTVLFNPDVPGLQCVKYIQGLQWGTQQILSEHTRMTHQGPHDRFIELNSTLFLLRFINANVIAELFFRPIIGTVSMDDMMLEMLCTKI", "format": "functional, cell-based"}, "cells [24]": {"assay": "cells", "format": "functional, cell-based"}, "cells [25]": {"assay": "cells", "format": "functional, cell-based", "remark": "listed apart in the source"}, "cells [26]": {"assay": "cells", "format": "functional, cell-based", "remark": "listed apart in the source"}, "[27]": {"target": "T4, Trace amine-associated receptor 1 (Homo sapiens, UniProt Q96RJ0)", "assay": "Fluorescence-based cell-based high throughput dose response assay to identify agonists of the human trace amine associated receptor 1 (TAAR1).", "format": "functional"}, "[28]": {"target": "T4, Trace amine-associated receptor 1", "assay": "Counterscreen for agonists of the human trace amine associated receptor 1 (hTAAR1): Fluorescence-based cell-based high throughput dose response assay to identify hTAAR1 agonist that also desensitize TAAR1 receptor response.", "format": "functional"}, "cells [29]": {"assay": "cells", "details": "A549"}, "[30]": {"target": "T5, Scavenger receptor class B member 1 (Mus musculus, UniProt Q61009)", "assay": "inhibitors of SR-BI dependent HDL uptake, dose response, ldlA[mSR-BI] CHO cells, fluorescence plate reader, dry powder, set 9 (AID 623880)", "format": "functional, cell-based"}, "[31]": {"target": "T5, Scavenger receptor class B member 1", "assay": "inhibitors of SR-BI-mediated HDL uptake, dose response, cell-based, ldlA[mSR-BI] CHO, DiI fluorescence, dry powder, set 10 (AID 624029)", "format": "functional"}}, "note": "The source made the active and inactive calls.", "data": [{"molecule": "O=S(=O)(C/C(=C/CO)S(=O)(=O)c1ccccc1)c1ccccc1", "values": [{"measurement": "EC50", "setting": "Wee1-like protein kinase", "result": "> 5.53 µM (active)"}, {"measurement": "AC50", "setting": "[1]", "result": "4.73 µM (active)"}, {"measurement": "AC50", "setting": "[2]", "result": "4.09 µM (active)"}, {"measurement": "IC50", "setting": "[3]", "result": "3.07 µM (active)"}, {"measurement": "AC50", "setting": "[4]", "result": "6.77 µM (active)"}, {"measurement": "IC50", "setting": "cells [5]", "result": "42.9 µM (inactive)"}, {"measurement": "EC50", "setting": "[6]", "result": "> 5.53 µM (active)"}, {"measurement": "AC50", "setting": "[7]", "result": "3.28 µM (active)"}, {"measurement": "EC50", "setting": "[8]", "result": "2.5 µM (active)"}, {"measurement": "AC50", "setting": "INS1", "result": "9.58 µM (active)"}, {"measurement": "IC50", "setting": "[9]", "result": "67.1 µM (inactive)"}, {"measurement": "EC50", "setting": "[10]", "result": "1.92 µM (active)"}, {"measurement": "EC50", "setting": "[11]", "result": "4.31 µM (active)"}, {"measurement": "IC50", "setting": "Major prion protein", "result": "9.14 µM (active)"}]}, {"molecule": "O=C(CSc1nnc(-c2cccnc2)s1)Nc1ccnc2ccccc12", "values": [{"measurement": "AC50", "setting": "[12]", "result": "39.3 µM (active)"}, {"measurement": "AC50", "setting": "[13]", "result": "1.19 µM (active)"}, {"measurement": "AC50", "setting": "[14]", "result": "0.661 µM (active)"}, {"measurement": "IC50", "setting": "[15]", "result": "5.33 µM (active)"}, {"measurement": "IC50", "setting": "Galanin receptor type 3", "result": "1.18 µM (active)"}, {"measurement": "AC50", "setting": "[16]", "result": "2.34 µM (active)"}, {"measurement": "EC50", "setting": "cells [17]", "result": "> 29.9 µM (inactive)"}]}, {"molecule": "Cc1ccc(NC(S)=NNC(=O)CSc2nnc(-c3ccc(Cl)cc3)n2C2CCCCC2)cc1", "values": [{"measurement": "IC50", "setting": "[18]", "result": "> 40.6 µM (inactive)"}]}, {"molecule": "COc1ccc(Cl)cc1NC(=O)CSc1nc(Nc2ccccc2)nc(N2CCOCC2)n1", "values": [{"measurement": "AC50", "setting": "[19]", "result": "64.2 µM (active)"}, {"measurement": "AC50", "setting": "[20]", "result": "> 52 µM (inactive)"}]}, {"molecule": "CCOc1ccc2nc(NCCCNS(=O)(=O)c3ccc(F)cc3)c(C#N)cc2c1", "values": [{"measurement": "AC50", "setting": "[21]", "result": "> 52 µM (inactive)"}]}, {"molecule": "C(=Cc1c[nH]c2ccccc12)c1ccc2ccccc2n1", "values": [{"measurement": "IC50", "setting": "[22]", "result": "> 67.5 µM (inactive)"}, {"measurement": "IC50", "setting": "[23]", "result": "10.3 µM (inactive)"}, {"measurement": "IC50", "setting": "cells [24]", "result": "> 67.5 µM (inactive)"}]}, {"molecule": "CN1CCNC(=O)C1CC(=O)NCCc1ccccc1F", "note": "(stereo not given)", "values": [{"measurement": "EC50", "setting": "cells [25]", "result": "> 29.9 µM (inactive)"}, {"measurement": "IC50", "setting": "cells [26]", "result": "> 29.9 µM (inactive)"}, {"measurement": "EC50", "setting": "[27]", "result": "2.49 µM (active)"}, {"measurement": "IC50", "setting": "[28]", "result": "6.6 µM (active)"}]}, {"molecule": "Cc1noc(C)c1-c1ccc(C(=O)NCCc2ccccc2)c2occc12", "values": [{"measurement": "AC50", "setting": "cells [29]", "result": "> 52 µM (inactive)"}]}, {"molecule": "C[C@@H]1CN([C@H](C)CO)C(=O)c2cc(NC(=O)C3CCCCC3)ccc2O[C@H]1CN(C)S(=O)(=O)c1ccc(Cl)cc1", "values": [{"measurement": "AC50", "setting": "[30]", "result": "0.0686 µM (active)"}, {"measurement": "AC50", "setting": "[31]", "result": "0.0616 µM (active)"}]}]}
